Measurements: ChEMBL document CHEMBL5579895, “Discovery of TYRA-300: First Oral Selective FGFR3 Inhibitor for the Treatment of Urothelial Cancers and Achondroplasia” (J Med Chem, 2024)
Values after ≈ are worked out from the molar mass of the structure shown.

What was measured:
[1] = Clearance in monkey at 1 mg/kg, iv measured for 24 hrs by LC-MS/MS analysis; assay type: ADME, organism-based, Macaca mulatta; settings: rhesus monkey, in vivo
[2] = Stability in human hepatocytes assessed as half life at 1 uM incubated upto 180 mins by LC-MS/MS analysis; assay type: ADME, cell-based, Hepatocyte
[3] = Oral bioavailability in dog at 10 mg/kg measured for 24 hrs by LC-MS/MS analysis; assay type: ADME, organism-based, Canis lupus familiaris; settings: in vivo
[4] = molecular target: Leukocyte tyrosine kinase receptor (Homo sapiens, UniProt P29376); test: Inhibition of human LTK by KINOMEscan analysis
[5] = Cmax in monkey at 10 mg/kg, po measured for 24 hrs by LC-MS/MS analysis; assay type: ADME, organism-based, Macaca mulatta; settings: rhesus monkey, in vivo
[6] = molecular target: Fibroblast growth factor receptor 3 (Homo sapiens, UniProt P22607, K650E); test: Inhibition of FGFR3 K650E mutant (unknown origin) by mobility shift assay
[7] = Stability in mouse hepatocytes assessed as half life at 1 uM incubated upto 180 mins by LC-MS/MS analysis; assay type: ADME, cell-based, Hepatocyte
[8] = Inhibition of recombinant FGFR3/BAIAP2L1 (unknown origin) transduced in mouse BaF3 cells incubated for 48 hrs by Cell Titer Glo assay; assay type: cell-based; settings: BaF3, 48 h
[9] = molecular target: Vascular endothelial growth factor receptor 3 (Homo sapiens, UniProt P35916); test: Inhibition of human FLT4 by KINOMEscan analysis
[10] = Half life in dog at 10 mg/kg, po measured for 24 hrs by LC-MS/MS analysis; assay type: ADME, organism-based, Canis lupus familiaris; settings: in vivo
[11] = molecular target: Fibroblast growth factor receptor 1 (Homo sapiens, UniProt P11362); test: Inhibition of human FGFR1 by KINOMEscan analysis
[12] = Thermodynamic solubility in FeSSIF; assay type: ADME; settings: read-out: Therm_solubility
[13] = Apparent permeability in human Caco-2 cells; assay type: ADME, cell-based
[14] = molecular target: Fibroblast growth factor receptor 3 (Homo sapiens, UniProt P22607, N540K); test: Inhibition of FGFR3 N540K mutant (unknown origin) by NanoBRET assay
[15] = Cmax in dog at 10 mg/kg, po measured for 24 hrs by LC-MS/MS analysis; assay type: ADME, organism-based, Canis lupus familiaris; settings: in vivo
[16] = AUC (last) in Sprague-Dawley rat at 2 mg/kg, iv measured for 24 hrs by LC-MS/MS analysis; assay type: ADME, organism-based; settings: in vivo

Chain of Fibroblast growth factor receptor 3 (Homo sapiens, UniProt P22607, K650E) (P22607 23-806 K650E limits assumed): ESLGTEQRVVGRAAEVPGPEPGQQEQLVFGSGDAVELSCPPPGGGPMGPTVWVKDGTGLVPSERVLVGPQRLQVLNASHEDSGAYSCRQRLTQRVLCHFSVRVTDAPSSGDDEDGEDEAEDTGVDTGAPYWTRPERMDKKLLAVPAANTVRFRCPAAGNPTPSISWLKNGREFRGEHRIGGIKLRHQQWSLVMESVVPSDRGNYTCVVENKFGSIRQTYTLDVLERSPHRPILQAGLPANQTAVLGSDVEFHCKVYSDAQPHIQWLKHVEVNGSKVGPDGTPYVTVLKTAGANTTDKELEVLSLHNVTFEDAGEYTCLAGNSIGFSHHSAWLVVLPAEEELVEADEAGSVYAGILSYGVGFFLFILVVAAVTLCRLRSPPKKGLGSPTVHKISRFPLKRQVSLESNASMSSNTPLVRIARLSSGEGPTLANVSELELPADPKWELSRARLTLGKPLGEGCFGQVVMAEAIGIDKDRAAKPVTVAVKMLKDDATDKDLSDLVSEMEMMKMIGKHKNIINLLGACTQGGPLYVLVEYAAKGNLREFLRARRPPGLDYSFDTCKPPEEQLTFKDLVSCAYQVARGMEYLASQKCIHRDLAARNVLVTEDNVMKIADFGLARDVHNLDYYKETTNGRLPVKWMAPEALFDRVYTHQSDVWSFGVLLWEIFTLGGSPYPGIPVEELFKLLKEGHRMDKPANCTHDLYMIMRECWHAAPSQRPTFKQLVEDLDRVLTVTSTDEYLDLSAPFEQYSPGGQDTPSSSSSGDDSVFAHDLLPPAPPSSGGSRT
Chain of Vascular endothelial growth factor receptor 3 (P35916 whole entry): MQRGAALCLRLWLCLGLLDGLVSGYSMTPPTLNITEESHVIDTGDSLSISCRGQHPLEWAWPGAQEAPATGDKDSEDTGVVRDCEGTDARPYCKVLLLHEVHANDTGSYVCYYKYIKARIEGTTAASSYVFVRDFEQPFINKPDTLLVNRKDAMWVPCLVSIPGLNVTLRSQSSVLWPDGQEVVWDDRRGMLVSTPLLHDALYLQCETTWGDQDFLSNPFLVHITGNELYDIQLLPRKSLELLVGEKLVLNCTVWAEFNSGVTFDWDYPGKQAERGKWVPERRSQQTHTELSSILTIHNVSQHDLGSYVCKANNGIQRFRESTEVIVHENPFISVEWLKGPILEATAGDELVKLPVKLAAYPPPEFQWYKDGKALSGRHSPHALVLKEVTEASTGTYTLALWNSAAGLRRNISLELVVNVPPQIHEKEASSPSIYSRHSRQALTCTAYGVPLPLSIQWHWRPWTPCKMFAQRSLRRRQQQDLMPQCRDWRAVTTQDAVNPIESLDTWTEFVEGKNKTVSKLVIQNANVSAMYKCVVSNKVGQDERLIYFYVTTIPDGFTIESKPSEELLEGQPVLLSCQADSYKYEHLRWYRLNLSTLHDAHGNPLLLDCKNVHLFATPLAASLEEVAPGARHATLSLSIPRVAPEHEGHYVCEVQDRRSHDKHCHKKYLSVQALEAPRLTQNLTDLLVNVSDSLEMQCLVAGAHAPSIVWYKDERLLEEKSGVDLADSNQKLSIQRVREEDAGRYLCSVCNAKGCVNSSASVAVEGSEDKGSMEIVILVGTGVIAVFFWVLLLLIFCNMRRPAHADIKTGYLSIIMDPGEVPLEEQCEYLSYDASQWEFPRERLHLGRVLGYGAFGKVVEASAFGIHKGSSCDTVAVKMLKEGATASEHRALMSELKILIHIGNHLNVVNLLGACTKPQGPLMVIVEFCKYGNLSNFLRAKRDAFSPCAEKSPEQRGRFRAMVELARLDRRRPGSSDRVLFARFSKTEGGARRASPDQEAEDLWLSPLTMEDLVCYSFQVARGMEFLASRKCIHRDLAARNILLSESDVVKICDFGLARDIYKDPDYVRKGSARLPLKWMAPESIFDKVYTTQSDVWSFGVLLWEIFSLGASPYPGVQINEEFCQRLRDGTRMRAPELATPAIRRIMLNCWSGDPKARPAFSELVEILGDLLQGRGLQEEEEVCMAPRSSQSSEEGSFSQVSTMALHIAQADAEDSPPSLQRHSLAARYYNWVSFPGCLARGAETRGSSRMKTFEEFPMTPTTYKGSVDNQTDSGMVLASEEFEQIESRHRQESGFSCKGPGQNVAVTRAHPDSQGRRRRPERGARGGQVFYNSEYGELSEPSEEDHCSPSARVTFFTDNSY
Chain of Fibroblast growth factor receptor 3 (Homo sapiens, UniProt P22607, N540K) (P22607 23-806 N540K limits assumed): as the sequence (P22607 23-806 K650E limits assumed) above, with N518K, E628K counted along it
Chain of Fibroblast growth factor receptor 1 (P11362 whole entry): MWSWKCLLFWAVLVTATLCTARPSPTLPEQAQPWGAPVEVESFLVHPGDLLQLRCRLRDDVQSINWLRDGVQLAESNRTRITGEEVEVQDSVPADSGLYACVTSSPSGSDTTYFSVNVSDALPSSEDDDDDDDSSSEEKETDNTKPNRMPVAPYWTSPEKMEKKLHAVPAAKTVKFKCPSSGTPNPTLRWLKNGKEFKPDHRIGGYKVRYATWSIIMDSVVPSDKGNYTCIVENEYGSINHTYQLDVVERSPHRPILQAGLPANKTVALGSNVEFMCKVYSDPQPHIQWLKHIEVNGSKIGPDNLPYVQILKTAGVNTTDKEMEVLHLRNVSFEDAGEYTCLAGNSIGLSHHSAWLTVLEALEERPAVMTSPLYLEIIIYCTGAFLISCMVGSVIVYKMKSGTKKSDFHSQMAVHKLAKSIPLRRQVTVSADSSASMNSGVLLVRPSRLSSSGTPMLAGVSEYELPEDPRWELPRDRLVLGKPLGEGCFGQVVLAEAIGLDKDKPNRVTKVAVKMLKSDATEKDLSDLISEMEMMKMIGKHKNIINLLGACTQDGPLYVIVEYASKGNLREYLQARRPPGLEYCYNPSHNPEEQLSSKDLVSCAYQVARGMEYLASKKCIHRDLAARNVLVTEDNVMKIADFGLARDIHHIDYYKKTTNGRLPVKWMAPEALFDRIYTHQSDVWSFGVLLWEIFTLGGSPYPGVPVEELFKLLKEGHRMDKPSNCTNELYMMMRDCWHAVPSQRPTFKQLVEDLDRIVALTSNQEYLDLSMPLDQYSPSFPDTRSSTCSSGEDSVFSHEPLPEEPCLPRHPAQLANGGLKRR
Chain of Leukocyte tyrosine kinase receptor (P29376 whole entry): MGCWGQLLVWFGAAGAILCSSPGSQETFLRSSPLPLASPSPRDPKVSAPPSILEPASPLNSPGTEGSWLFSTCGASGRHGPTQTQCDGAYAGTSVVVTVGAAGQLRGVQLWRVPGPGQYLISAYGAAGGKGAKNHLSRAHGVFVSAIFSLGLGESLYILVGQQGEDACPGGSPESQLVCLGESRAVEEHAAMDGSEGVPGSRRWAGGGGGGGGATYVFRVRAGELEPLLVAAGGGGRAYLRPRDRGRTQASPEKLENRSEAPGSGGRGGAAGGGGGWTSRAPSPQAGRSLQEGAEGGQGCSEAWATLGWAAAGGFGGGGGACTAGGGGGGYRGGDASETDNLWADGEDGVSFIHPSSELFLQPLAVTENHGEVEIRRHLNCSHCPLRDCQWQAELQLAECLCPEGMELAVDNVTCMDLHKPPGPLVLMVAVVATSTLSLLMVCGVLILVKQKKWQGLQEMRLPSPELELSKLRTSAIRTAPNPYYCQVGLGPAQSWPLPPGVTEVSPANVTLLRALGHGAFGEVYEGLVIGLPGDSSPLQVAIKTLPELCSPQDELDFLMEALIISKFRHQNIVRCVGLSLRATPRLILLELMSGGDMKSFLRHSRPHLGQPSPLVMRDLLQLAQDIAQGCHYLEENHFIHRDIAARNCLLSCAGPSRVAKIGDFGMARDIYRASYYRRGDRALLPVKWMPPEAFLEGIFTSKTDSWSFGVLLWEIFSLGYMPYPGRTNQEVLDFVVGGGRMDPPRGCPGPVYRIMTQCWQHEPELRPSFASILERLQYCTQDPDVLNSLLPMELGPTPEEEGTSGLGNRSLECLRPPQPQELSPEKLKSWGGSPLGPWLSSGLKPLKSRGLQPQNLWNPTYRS

- clearance [1]: 11.1 mL/min/kg
- half-life at 1 µM [2]: > 1.67 h
- bioavailability [3]: 98%
- IC50 [4]: 65 nM
- Cmax [5]: 1210 ng/mL
- IC50 [6]: 2.8 nM
- half-life at 1 µM [7]: > 1.67 h
- IC50 [9]: 2.1 nM
- half-life [10]: 24.8 h
- IC50 [11]: 108 nM
- solubility thermodynamic [12]: 514 µM (≈ 288 µg/mL)
- Papp [13]: 1.1 ×10⁻⁶ cm/s
- IC50 [14]: 73 nM
- Cmax [15]: 3090 ng/mL
- AUC(0-t) at 24 h [16]: 1730 ng·h/mL
SMILES: C[C@@H](Oc1ccc2[nH]nc(-c3ccc(N4CC5(C4)CN(S(C)(=O)=O)C5)nc3)c2c1)c1c(Cl)cncc1Cl
- IC50 [8]: 11 nM
